Our source for the IC50 values is patent US10138230B2, “Autotaxin inhibitors” (CANCER RESEARCH TECHNOLOGY LIMITED, priority 2015, dated 2018).

Each structure is given as a SMILES string. Where a name gives a salt, the structure may show the parent alone.

This experiment has as its target human recombinant ATX (Homo sapiens (Human), UniProt Q13822). Briefly: Autotaxin (ATX) activity Quanta Red assay. It counts as biochemical. The settings on record: 15 μM Rac-1-Palmitoyl-glycero-3-phosphocholine, 2 hours room temperature, determined in duplicate. How it is done:
The ATX enzyme assay (Quanta Red assay) described in accompanying Example section may be used to measure the pharmacological effects of the compounds of the present invention.
Autotaxin (ATX) Activity Quanta Red Assay
Measuring ATX activity using an enzyme coupled Quanta Red assay (Thermo Scientific—Pierce Protein Research Products, Product #15159) was determined as follows. 8 μL human recombinant ATX (final concentration 0.8 μg/mL) in 1× Assay buffer containing 50 mM Tris-HCl (pH 8.0), 5 mM CaCl2 was added to an opaque black flat-bottom 384-well plate (Corning, #3575) containing 2 μL test compound in 40% DMSO (4% final DMSO concentration). 10 μL of Quanta Red, Horseradish peroxidase (HRP), Choline Oxidase (CO), Rac-1-Palmitoyl-glycero-3-phosphocholine solution (final concentration 1:250 for Quanta Red, 0.5units/ml HRP, 0.5units/ml CO, 15 μM Rac-1-Palmitoyl-glycero-3-phosphocholine) in 1× assay buffer (as described previously) was added to each well to start the reaction and the plate was incubated at room temperature for 2 hours. The reaction was stopped after 2 hours with a 20 μL addition of Quanta Red Stop solution (1:20 dilution in distilled water). The above-described mixture with DMSO alone was used as a positive control whereas that with DMSO alone without ATX was taken as a negative control.
For each test compound, ten concentrations were measured covering a range of 6.1 nM to 120 μM to determine IC50 values. The top concentration was decreased to 1.2 μM when a test compound's IC50 value was evaluated in low nanomolar range. Fluorescence was determined in a BMG Labtech Pherastar plus plate reader ([…]). Data were analysed using Excel fit software. IC50 values were determined in duplicate.
The term IC50 denotes the concentration that gives 50% inhibition. Turning to `O=C(Nc1ccc(CCc2ccc(F)cc2)nn1)C1CC(=O)N(c2ccc(CN3CCOCC3)cc2)C1` (stereo not shown) [Compound F149, 1-(4-morpholin-4-ylmethyl-phenyl)-5-oxo-pyrrolidine-3-carboxylic acid {6-[2-(4-fluoro-phenyl)-ethyl]-pyridazin-3-yl}-amide], the IC50 was determined as 7 nM.

As to `O=C(Nc1nnc(CCc2ccc(Cl)cc2)s1)C1CC(=O)N(c2ccc(CNC3CCOCC3)cc2)C1` (stereo not shown) [Compound F105, 5-oxo-1-{4-[(tetrahydro-pyran-4-ylamino)-methyl]-phenyl}-pyrrolidine-3-carboxylic acid {5-[2-(4-chloro-phenyl)-ethyl]-[1,3,4]thiadiazol-2-yl}-amide; hydrochloride], the IC50 amounted to 3 nM. As for `O=C(Nc1cc(CCc2ccccc2)on1)C1CC(=O)N(c2ccc(CN3CCOCC3)cc2)C1` (stereo not shown) [Compound F158, 1-[4-(morpholinomethyl)phenyl]-5-oxo-N-[5-(2-phenylethyl)isoxazol-3-yl]pyrrolidine-3-carboxamide], the figure is 17 nM; as for `COc1ccc(CCc2nnc(NC(=O)C3CC(=O)N(c4ccc(CN5CCOCC5)cc4)C3)o2)cc1` (stereo not shown) [Compound F207, N-[5-[2-(4-methoxyphenyl)ethyl]-1,3,4-oxadiazol-2-yl]-1-[4-(morpholinomethyl)phenyl]-5-oxo-pyrrolidine-3-carboxamide], 2450 nM. Take `CC1CCN(Cc2ccc(N3C[C@@H](NC(=O)c4nnc(CCc5ccc(Cl)cc5)s4)CC3=O)cc2)CC1` [Compound F137, 1-{4-[(S)-4-({5-[2-(4-chloro-phenyl)-ethyl]-[1,3,4]thiadiazole-2-carbonyl}-amino)-2-oxo-pyrrolidin-1-yl]-benzyl}-4-methyl-piperidine hydrochloride]: the IC50 turned out to be 4 nM. `CC1CCN(Cc2ccc(N3CC(C(=O)Nc4nnc(CCc5ccc(Cl)cc5)s4)CC3=O)cc2)CC1` (stereo not shown) [Compound F95, 1-[4-(4-methyl-piperidin-1-ylmethyl)-phenyl]-5-oxo-pyrrolidine-3-carboxylic acid {5-[2-(4-chloro-phenyl)-ethyl]-[1,3,4]thiadiazol-2-yl}-amide]: the IC50 is 2 nM. As for `CCN(C)Cc1ccc(N2CC(C(=O)Nc3nnc(CCc4ccc(Cl)cc4)s3)CC2=O)cc1` (stereo not shown) [Compound F211, 1-{4-[(Ethyl-methyl-amino)-methyl]-phenyl}-5-oxo-pyrrolidine-3-carboxylic acid {5-[2-(4-chloro-phenyl)-ethyl]-[1,3,4]thiadiazol-2-yl}-amide], the figure is 9 nM; as for `CN(Cc1ccc(N2C[C@@H](C(=O)Nc3ccc(CCc4ccc(F)cc4)nn3)CC2=O)cc1)C1CCOC1` (stereo partly drawn) [Compound F148, (3S)-N-[6-[2-(4-fluorophenyl)ethyl]pyridazin-3-yl]-1-[4-[[methyl(tetrahydrofuran-3-yl)amino]methyl]phenyl]-5-oxo-pyrrolidine-3-carboxamide], 6 nM; as for `O=C(Nc1ccc(CCc2ccccc2)nn1)C1CC(=O)N(c2ccc(CN3CCOCC3)cc2)C1` (stereo not shown) [Compound F162, 1-[4-(morpholinomethyl)phenyl]-5-oxo-N-[6-(2-phenylethyl)pyridazin-3-yl]pyrrolidine-3-carboxamide], 37 nM. The value for `O=C(Nc1ccc(CCc2ccc(F)cc2)nn1)[C@H]1CC(=O)N(c2ccc(CN3CCOCC3)cc2)C1` [Compound F180, (3S)—N-[6-[2-(4-fluorophenyl)ethyl]pyridazin-3-yl]-1-[4-(morpholinomethyl)phenyl]-5-oxo-pyrrolidine-3-carboxamide hydrochloride] was 11 nM; that for `O=C(Nc1nnc(CCc2ccc(Cl)cc2)s1)C1CC(=O)N(c2ccc(CN3CCCC3)cc2)C1` (stereo not shown) [Compound F151, N-[5-[2-(4-chlorophenyl)ethyl]-1,3,4-thiadiazol-2-yl]-5-oxo-1-[4-(pyrrolidin-1-ylmethyl)phenyl] pyrrolidine-3-carboxamide] was 9 nM; that for `O=C(Nc1nnc(CCC2CCCCC2)s1)C1CC(=O)N(c2ccc(CN3CCOCC3)cc2)C1` (stereo not shown) [Compound F147, N-[5-(2-cyclohexylethyl)-1,3,4-thiadiazol-2-yl]-1-[4-(morpholinomethyl)phenyl]-5-oxo-pyrrolidine-3-carboxamide] was 2 nM. As to `CC1CCN(Cc2ccc(N3C[C@@H](C(=O)Nc4nnc(CCc5ccc(Cl)cc5)s4)CC3=O)cc2)CC1` [Compound F92, (S)-1-[4-(4-methyl-piperidin-1-ylmethyl)-phenyl]-5-oxo-pyrrolidine-3-carboxylic acid {5-[2-(4-chloro-phenyl)-ethyl]-[1,3,4]thiadiazol-2-yl}-amide], the IC50 worked out at 1 nM. As for `CN1CCN(Cc2ccc(N3CC(C(=O)Nc4nnc(CCc5ccc(Cl)cc5)s4)CC3=O)cc2)CC1` (stereo not shown) [Compound F117, N-[5-[2-(4-chlorophenyl)ethyl]-1,3,4-thiadiazol-2-yl]-1-[4-[(4-methylpiperazin-1-yl)methyl]phenyl]-5-oxo-pyrrolidine-3-carboxamide], the figure is 4 nM; as for `O=C(Nc1nnc(CCc2ccc(Cl)cc2)s1)[C@H]1CC(=O)N(c2ccc(CN3CCCOCC3)cc2)C1` [Compound F104, (3S)-N-[5-[2-(4-chlorophenyl)ethyl]-1,3,4-thiadiazol-2-yl]-1-[4-(1,4-oxazepan-4-ylmethyl)phenyl]-5-oxo-pyrrolidine-3-carboxamide], 3 nM.

Consider `CN(Cc1ccc(N2C[C@@H](C(=O)Nc3nnc(CCc4ccc(Cl)cc4)s3)CC2=O)cc1)C1CCOC1` (stereo partly drawn) [Compound F87, (3S)-N-[5-[2-(4-chlorophenyl)ethyl]-1,3,4-thiadiazol-2-yl]-1-[4-[[methyl(tetrahydrofuran-3-yl)amino]methyl]phenyl]-5-oxo-pyrrolidine-3-carboxamide], for which the IC50 is 1 nM. The value for `O=C(NC1CC(=O)N(c2ccc(CN3CCCCC3)cc2)C1)c1ncc(CCc2ccccc2)s1` (stereo not shown) [Compound F197, N-[5-oxo-1-[4-(1-piperidylmethyl)phenyl]pyrrolidin-3-yl]-5-(2-phenylethyl)thiazole-2-carboxamide] was 465 nM. As for `O=C(NC1CC(=O)N(c2ccc(CN3CCCCC3)cc2)C1)c1nnc(CCc2ccccc2)o1` (stereo not shown) [Compound F194, N-[5-oxo-1-[4-(1-piperidylmethyl)phenyl]pyrrolidin-3-yl]-5-(2-phenylethyl)-1,3,4-oxadiazole-2-carboxamide], the figure is 649 nM; as for `O=C(NC1CC(=O)N(c2ccc(CN3CC4CC4C3)cc2)C1)c1nnc(CCc2ccc(Cl)cc2)s1` (stereo not shown) [Compound F140, N-[1-[4-(3-azabicyclo[3.1.0]hexan-3-ylmethyl)phenyl]-5-oxo-pyrrolidin-3-yl]-5-[2-(4-chlorophenyl)ethyl]-1,3,4-thiadiazole-2-carboxamide], 5 nM; as for `CCN(Cc1ccc(N2CC(C(=O)Nc3nnc(CCc4ccc(Cl)cc4)s3)CC2=O)cc1)CC(C)C` (stereo not shown) [Compound F112, N-[5-[2-(4-chlorophenyl)ethyl]-1,3,4-thiadiazol-2-yl]-1-[4-[[ethyl(isobutyl)amino]methyl]phenyl]-5-oxo-pyrrolidine-3-carboxamide], 3 nM. The value for `O=C(N[C@@H]1CCN(c2ccc(CN3CCOCC3)cc2)C1)c1nnc(CCc2ccc(Cl)cc2)s1` [Compound F131, 5-[2-(4-chloro-phenyl)-ethyl]-[1,3,4]thiadiazole-2-carboxylic acid [(R)-1-(4-morpholin-4-ylmethyl-phenyl)-pyrrolidin-3-yl]-amide hydrochloride] was 2 nM; that for `CN(Cc1ccc(N2C[C@@H](C(=O)Nc3cc(CCc4ccc(Cl)cc4)on3)CC2=O)cc1)C1CCOC1` (stereo partly drawn) [Compound F152, (3S)-N-[5-[2-(4-chlorophenyl)ethyl]isoxazol-3-yl]-1-[4-[[methyl(tetrahydrofuran-3-yl)amino]methyl]phenyl]-5-oxo-pyrrolidine-3-carboxamide] was 2 nM; that for `Cn1nc(NC(=O)C2CC(=O)N(c3ccc(CN4CCOCC4)cc3)C2)cc1CCc1ccc(Cl)cc1` (stereo not shown) [Compound F192, N-[5-[2-(4-chlorophenyl)ethyl]-1-methyl-pyrazol-3-yl]-1-[4-(morpholinomethyl)phenyl]-5-oxo-pyrrolidine-3-carboxamide] was 773 nM. With `CC1CCN(Cc2ccc(N3CC(NC(=O)c4nnc(CCc5ccc(Cl)cc5)s4)CC3=O)cc2)CC1` (stereo not shown) [Compound F136, 5-[2-(4-chlorophenyl)ethyl]-N-[1-[4-[(4-methyl-1-piperidyl)methyl]phenyl]-5-oxo-pyrrolidin-3-yl]-1,3,4-thiadiazole-2-carboxamide], the half-inhibitory concentration (IC50) was 4 nM. Take `CN(Cc1ccc(N2C[C@@H](C(=O)Nc3ccc(CCc4ccc(F)cc4)nn3)CC2=O)cc1)C1COC1` [Compound F155, (3S)-N-[6-[2-(4-fluorophenyl)ethyl]pyridazin-3-yl]-1-[4-[[methyl(oxetan-3-yl)amino]methyl]phenyl]-5-oxo-pyrrolidine-3-carboxamide]: the IC50 was found to be 11 nM.
